The values below come from patent US9956240B2, “Therapeutic monosaccharide-based inhibitors of hexokinase and glucokinase for parasitic diseases, along with methods of their formation and use” (University of South Carolina, priority 2014, dated 2018).

Like-named read-outs stand apart in the source and are kept apart here. A value given as a limit tells only on which side of the number the result lay.

The target in test [1] is T1, T. cruzi glucokinase (TcGlcK) (Trypanosoma cruzi, UniProt Q4E4E1).
T1 construct: precedes the start methionine and the 9-residue segment VGKKQKAQL at the C-terminal region was not included; made in house; host or cells: E. coli BL21(DE3)
T1 sequence (Q4E4E1 entry or part of it): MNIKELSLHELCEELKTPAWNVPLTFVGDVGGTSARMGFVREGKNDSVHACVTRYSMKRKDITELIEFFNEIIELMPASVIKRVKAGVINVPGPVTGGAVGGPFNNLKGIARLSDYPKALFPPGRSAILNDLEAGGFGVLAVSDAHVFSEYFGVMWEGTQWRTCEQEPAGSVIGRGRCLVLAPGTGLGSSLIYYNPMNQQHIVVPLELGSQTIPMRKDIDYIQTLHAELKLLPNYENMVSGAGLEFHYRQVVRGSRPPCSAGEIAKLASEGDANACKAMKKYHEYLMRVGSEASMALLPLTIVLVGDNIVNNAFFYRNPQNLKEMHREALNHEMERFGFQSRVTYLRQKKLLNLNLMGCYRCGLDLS
The test is described as follows: Two-enzyme coupled colorimetric glucokinase activity assay (G6PDH/NADPH), TcGlcK. The note with it: for Glucokinase selectivity ratio = Ki (HsGlcK)/Ki (TcGlcK): higher values indicate better selectivity toward TcGlcK. It is filed as biochemical. Here is the method: (§1) Enzymatic activity of glucokinase from T. cruzi and H. sapiens were both performed using a similar protocol but had minor modifications. In general, a two-enzyme coupled colorimetric assay was performed, as previously described (4). The assay is based on the formation of NADPH (λmax≈340 nm; ϵ340=6,220 M^−1 cm^−1) (5). In the 1st step of the assay, glucokinase/hexokinase in the presence of Mg^2+, ATP, and D-glucose react to form glucose-6-phosphate (G-6-P) and ADP. In the 2nd step, glucose-6-phosphate dehydrogenase (G6PDH) in the presence of the formed G-6-P and NADP^+ react to form 6-phosphogluconolactone and NADPH. All measurements were performed in triplicate at 22° C.
TcGlcK assays used purified enzyme (0.12 μM for the monomer (0.0051 mg/mL)) that was used in the reaction mixtures, which were carried out with S. cerevisiae G6PDH (0.0064 mg/mL) in an assay buffer [50 mM triethanolamine (pH 7.6), 7.95 mM MgCl2, 0.55 mM ATP, 0.55 mM NADP^+] contained substrate ([D-glucose] ranged from 0.2-15.0 mM) and inhibitor ([BENZ-GlcN] ranged from 0-20 μM; [CBZ-GlcN] ranged from 0-10 μM; [HPOP-GlcN] ranged from 0-10 μM; and [DBT-GlcN] ranged from 0-20 μM). Reactions were performed at room temperature (22° C.) and were terminated after 120 sec (optimal time) using 90 μL of 1.5 M EDTA (pH 8.0). The EDTA solution was prepared from the tetrasodium salt. For quantification of NADPH, UV-visible spectrophotometric absorbance readings were recorded at 338 nm (λ) with an Agilent 8453 UV-visible spectrophotometer exactly 1 min after solutions were treated with the EDTA solution. Concentration of NADPH was determined through Beer's Law using the molar absorptivity of 6,220 M^−1 cm^−1.

The target in test [2] is T2, Homo sapiens glucokinase (hexokinase IV) (HsGlcK) (Homo sapiens, UniProt P35557).
T2 construct: precedes residue K12 (N-terminal segment M1-A11 of HsGlcK was not included); made in house; host or cells: E. coli BL21(DE3)
T2 sequence (P35557 12-457 limits assumed): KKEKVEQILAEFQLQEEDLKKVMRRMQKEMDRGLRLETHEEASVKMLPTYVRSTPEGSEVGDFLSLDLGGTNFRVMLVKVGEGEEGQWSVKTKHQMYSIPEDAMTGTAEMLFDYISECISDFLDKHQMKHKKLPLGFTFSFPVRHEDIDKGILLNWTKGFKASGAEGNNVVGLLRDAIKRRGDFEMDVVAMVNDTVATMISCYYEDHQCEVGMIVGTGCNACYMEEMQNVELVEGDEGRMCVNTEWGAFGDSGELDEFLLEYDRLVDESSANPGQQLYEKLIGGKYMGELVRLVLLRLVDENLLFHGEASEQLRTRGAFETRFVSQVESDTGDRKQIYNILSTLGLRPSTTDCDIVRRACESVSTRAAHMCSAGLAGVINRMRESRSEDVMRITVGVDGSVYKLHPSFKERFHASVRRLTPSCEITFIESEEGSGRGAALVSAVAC
Briefly: Two-enzyme coupled colorimetric glucokinase activity assay (G6PDH/NADPH), HsGlcK. It is filed as biochemical. The note with it: measurements in triplicate, 22° C., substrate D-glucose, compounds tested as racemic mixtures (n ≥ 2), read-out: Ki versus substrate, HsGlcK. Here is the method: as §1
HsGlcK assays were performed at room temperature and used the same protocol implemented for TcGlcK (see above) except that the reactions were terminated after 600 sec (optimum time) with 90 μL of 1.5 M EDTA (pH 8.0) and the reaction mixtures had slight modification. Briefly, DTT, which reduces disulfide bonds was added to the stock solution aliquot of HsGlcK on the day of the experiment (e.g. 1.0 μL of 20 mM DTT was mixed with 99.0 μL of 1.0 mg/mL HsGlcK) and was allowed to pre-equilibrate at 4° C. for 30 min prior to running assay reactions. Purified HsGlcK (0.15 μM for the monomer or 0.0077 mg/mL) and S. cerevisiae G6PDH (0.0064 mg/mL) in an assay buffer [50 mM triethanolamine (pH 7.6), 7.95 mM MgCl2, 5.0 mM ATP, 0.55 mM […], 1.0% (v/v) DMSO, 1.0 mM DTT, 5.0 mM KCl] contained substrate ([D-glucose] ranged from 5.0-50.0 mM) and inhibitor ([BENZ-GlcN] ranged from 0-500 μM; [CBZ-GlcN] ranged from 0-500 μM; and [HPOP-GlcN] ranged from 0-500 μM). DBT-GlcN was not used in the inhibition enzymatic assays because this compound absorbs light at the wavelength of NADPH (338 nm) at the concentrations needed for any reasonable inhibition of HsGlcK.

Test [3] concerns T. cruzi (Tulahuen strain) intracellular amastigote parasite cells. Briefly: T. cruzi in-vitro growth inhibition assay, amastigotes co-cultured in NIH/3T3 fibroblasts. It is filed as cell-based. Particulars: Trypanosoma cruzi, NIH3T3, co-cultured within NIH/3T3 fibroblast cells, triplicate. As for the experimental part:
T. cruzi (Tulahuen strain) intracellular amastigote parasite cells co-cultured within NIH/3T3 mammalian fibroblast cells were tested for in-vitro growth inhibition from each of Samples 1-4. […] Samples 1, 3, and 4 had IC50 values>40 μM. The methods used for producing cultures of T. cruzi cells and mammalian cells in addition to the methods of performing T. cruzi in-vitro inhibition assays were previously described by Andriani and colleagues (20). All biological experimentation was carried out at the Anti-Infectives Screening Core Service Center at New York University School of Medicine, Department of Microbiology.

Where [4] appears, read: colorimetric assay, measurements in triplicate, 22° C., substrate D-glucose, compounds tested as racemic mixtures (n ≥ 2), read-out: Ki versus substrate, TcGlcK.

As to `O=C(N[C@H]1C(O)O[C@H](CO)[C@@H](O)[C@@H]1O)c1ccccc1` (stereo partly drawn) [BENZ-GlcN, 2-benzamido-2-deoxy-D-glucopyranose], the values for the Ki in test [1] (setting [4]) and in test [2] were 32 ± 26 µM and 376 ± 196 µM, respectively. For the same compound, in test [1], the “Glucokinase selectivity ratio = Ki (HsGlcK)/Ki (TcGlcK)” value turned out to be 12. For the same compound, the IC50 – broadly, the point on the concentration scale where inhibition reaches its midpoint – in test [3] is 16.08 ± 0.16 µM.
Consider `O=C(N[C@H]1C(O)O[C@H](CO)[C@@H](O)[C@@H]1O)OCC1=Cc2ccccc2S1(=O)=O` (mixture of isomers) [DBT-GlcN, 2-[[1,1-dioxobenzo[b]thiophen-2-yl]methyloxocarbonylamino]-2-deoxy-D-glucosamine], for which the Ki (as a rule, the equilibrium dissociation constant of an inhibitor or competing ligand from its target) in test [1] (setting [4]) stood at 4.1 ± 0.3 µM. In test [3], this compound had an IC50 above 40 µM.
With `O=C(CCc1ccc(O)cc1)N[C@H]1C(O)O[C@H](CO)[C@@H](O)[C@@H]1O` (mixture of isomers) [HPOP-GlcN, 2-[[3-(4-hydroxyphenyl)-1-oxopropyl]amino]-2-deoxy-D-glucosamine], the inhibition constant (Ki) amounted to 1.3 ± 0.6 µM in test [1] and 242 ± 97 µM in test [2]. Besides, the “Glucokinase selectivity ratio = Ki (HsGlcK)/Ki (TcGlcK)” value in test [1] was 186. The compound further displayed an IC50 in test [3] above 40 µM.
On the same counts, the results for `O=C(N[C@H]1C(O)O[C@H](CO)[C@@H](O)[C@@H]1O)OCc1ccccc1` (mixture of isomers) [CBZ-GlcN, 2-N-carboxybenzyl-2-deoxy-D-glucosamine] are 0.71 ± 0.05 µM, 174 ± 50 µM, 245 and above 40 µM.
